Assay results as given in the supplement of paper PMC10702517.
± gives the standard deviation.

Legend:
[1] = chemical recovery by SPE of plasma after PDMS sampling; higher = better extraction; details: pooled human plasma, extraction method: HLB SPE of plasma after PES
[2] = chemical recovery from spiked human plasma; higher = better extraction; details: pooled human plasma
[3] = extraction method: SPE only (HLB 96-well), PES comparison experiment
[4] = extraction method: solvent precipitation (ACN + hexane)
[5] = extraction method: PES+SPE (3 d PDMS equilibration then HLB SPE)
[6] = extraction method: SPE only (HLB 96-well)
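For chemical recovery by SPE of plasma after PDMS sampling in this document: over 400 spiked chemicals quantified by LC-HRMS or GC-HRMS via internal standard calibration, recovery relative to spike mix added to unspiked plasma extract to correct matrix effects.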

| Structure (SMILES) | chemical recovery by SPE of plasma ([1]; equilibration time (d): 3) [%] | chemical recovery by SPE of plasma ([1]; equilibration time (d): 6) [%] | chemical recovery by SPE of plasma ([1]; equilibration time (d): 1) [%] | chemical recovery [2, 3] [%] | chemical recovery [2, 4] [%] | chemical recovery [2, 6] [%] | chemical recovery [2, 5] [%] |
| --- | --- | --- | --- | --- | --- | --- | --- |
| CO/N=C(/C(=O)O)c1ccccc1CO/N=C(\C)c1cccc(C(F)(F)F)c1 | 38.9 ± 4.6 | 33.6 ± 9.2 |  | 35.7 ± 5.6 | 78.6 ± 6.2 |  |  |
| Oc1ccc(Cl)cc1Cl [2,4-Dichlorophenol] | 56.9 ± 4.3 | 50.9 ± 3.1 | 49.3 ± 11 | 54.2 ± 5.9 |  | 40.3 ± 3.3 | 43.4 ± 3.3 |
| O=[N+]([O-])c1ccc(O)c([N+](=O)[O-])c1 [2,4-Dinitrophenol] | 52 ± 3 | 50.9 ± 4.5 | 49.4 ± 8.9 | 59.8 ± 4.8 | 79.6 ± 6.8 | 48.7 ± 6.6 | 52.7 ± 7.5 |
| Oc1ccccc1-c1ccccc1 [2-Phenylphenol] | 3.47 ± 0.42 | 3.11 ± 1.4 | 4.5 ± 4 |  |  | 19.9 ± 4.2 |  |
| Nc1ccc(Sc2ccc(N)cc2)cc1 [4,4'-Thiodianiline] | 10.6 ± 2.5 | 7.77 ± 1.4 | 11.7 ± 2.8 | 16.5 ± 2 | 42.1 ± 9.6 | 8.97 ± 1.9 | 1.15 ± 0.088 |
| Oc1ccc(Cl)cc1 [4-Chlorophenol] | 66.4 ± 6.9 | 59.4 ± 4.3 | 60 ± 12 | 60.1 ± 5.1 | 98 ± 9.7 | 35.2 ± 7.2 | 33.9 ± 11 |
| O=c1cc(O)c2ccccc2o1 [4-Hydroxycoumarin] | 64.3 ± 4.7 | 78 ± 15 | 69.3 ± 16 | 13.2 ± 3.1 |  |  |  |
| CCC(=C(c1ccc(O)cc1)c1ccc(OCCN(C)C)cc1)c1ccccc1 [4-Hydroxytamoxifen] | 7.29 ± 0.7 | 3.71 ± 1.9 | 13.5 ± 3.3 | 42.6 ± 12 | 62.1 ± 1.3 | 46.8 ± 8.9 | 11.4 ± 2.5 |
| Brc1ccc(Oc2ccc(Br)cc2Br)c(Br)c1 [BDE47] | 1.56 ± 0.066 | 1.34 ± 0.21 | 1.38 ± 1 |  |  |  |  |

Second part, led by results:

| chemical recovery by SPE of plasma ([1]; equilibration time (d): 3) [%] | chemical recovery by SPE of plasma ([1]; equilibration time (d): 6) [%] | chemical recovery by SPE of plasma ([1]; equilibration time (d): 1) [%] | chemical recovery [2, 3] [%] | chemical recovery [2, 4] [%] | chemical recovery [2, 6] [%] | Structure (SMILES) | chemical recovery [2, 5] [%] |
| --- | --- | --- | --- | --- | --- | --- | --- |
| 28.5 ± 9.3 | 33.9 ± 4.1 |  |  |  |  | CCc1cccc(C)c1N(C(=O)CS(=O)(=O)O)[C@@H](C)C(=O)O |  |
| 40.4 ± 2 | 40.3 ± 9.3 | 37.4 ± 8.2 | 42.9 ± 4.2 |  |  | CCc1cccc(C)c1NC(=O)CS(=O)(=O)O |  |
| 49.6 ± 1.4 | 45.4 ± 6.4 |  | 52.8 ± 4.5 | 65.4 ± 4.9 | 30.6 ± 4.5 | NC(=O)c1c(Cl)c(Cl)cc(C(=O)O)c1Cl | 25.4 ± 4.9 |
| 3.98 ± 3.6 | 4.03 ± 4.2 | 2.28 ± 2 | 3.93 ± 4.5 |  | 3.53 ± 1.7 | CCCCn1cc[n+](C)c1 [1-Butyl-3-methyl-imidazolium] |  |
| 42.3 ± 0.92 | 39.9 ± 5.4 | 31.8 ± 4.8 | 46 ± 4.3 | 88.4 ± 4.2 | 61.2 ± 20 | O=S(=O)(O)c1nc2ccccc2s1 [2-Benzothiazolesulfonic acid] |  |
| 47.9 ± 0.58 | 45 ± 6.4 |  | 44.7 ± 5.6 | 74.1 ± 3.9 | 61.3 ± 20 | O=S(=O)(O)c1cccc2ccc(O)cc12 [2-Naphthol-8-sulfonic acid] |  |
| 59.3 ± 2.9 | 55.1 ± 4.6 | 57.4 ± 7.2 | 64.5 ± 4.6 | 65.1 ± 6.7 | 41.5 ± 6.3 | O=[N+]([O-])c1ccc(O)cc1 [4-Nitrophenol] | 48.9 ± 3 |
| 17 ± 1.5 | 11.3 ± 1.4 | 11 ± 0.85 |  |  |  | CC(C)(C)c1ccc(S(N)(=O)=O)cc1 [4-tert-Butylbenzenesulfonamide] |  |
| 1.28 ± 1.1 | 1.37 ± 0.46 | 2.59 ± 4.5 |  |  |  | c1cc2ccc3ccc4ccc5cccc6c(c1)c2c3c4c56 [Benzo(ghi)perylene] |  |
| 1.3 ± 0.43 | 1.16 ± 0.33 | 1.57 ± 0.15 |  |  |  | c1ccc2c(c1)-c1ccc3ccc4cccc5cc-2c1c3c45 [Indeno(1,2,3-cd)pyrene] |  |
|  |  |  |  | 72.7 ± 3.6 | 30 ± 3.4 | N[C@@H](CC(=O)N1CCn2c(nnc2C(F)(F)F)C1)Cc1cc(F)c(F)cc1F [Sitagliptin] | 33.4 ± 2.7 |
